What was measured:
[1] = Cytotoxicity against rat RT2 cells expressing wild type p53 after 48 hrs by MTT assay; format: functional, cell-based; conditions: RT2, 48 h
[2] = Cytotoxicity against human T98 cells expressing p53 mutant after 48 hrs by MTT assay; format: functional, cell-based; conditions: T98, 48 h
[3] = Cytotoxicity against erythrocytes assessed as hemolysis; format: cell-based; conditions: erythrocyte

| SMILES | IC50 [1] [nM] | IC50 [2] [nM] | Hemolytic concentration [3] [mM] |
| --- | --- | --- | --- |
| C/C(=N\NC(=S)Nc1ccccc1C)c1ccccn1 | 14 | 34 | > 1 |
| C/C(=N\NC(=S)Nc1ccccc1Cl)c1ccccn1 | 1.4 | 1.1 | > 1 |
| C/C(=N\NC(=S)Nc1cccc(C)c1)c1ccccn1 | 24 | 50 | > 1 |
| C/C(=N\NC(=S)Nc1cccc(Cl)c1)c1ccccn1 | 9 | 1 | > 1 |
| C/C(=N\NC(=S)Nc1ccc(Cl)cc1)c1ccccn1 | 3.7 | 5.9 | > 1 |
| C/C(=N\NC(=S)Nc1ccc(C)cc1)c1ccccn1 | 17 | 37 | > 1 |
| C/C(=N\NC(=S)Nc1ccccc1)c1ccccn1 | 1.4 | 6.8 | > 1 |

Reference: ChEMBL document CHEMBL1629472, “2-Acetylpyridine thiosemicarbazones: cytotoxic activity in nanomolar doses against malignant gliomas” (Eur J Med Chem, 2010)
